PubChem BioAssay AID1918996 (Molecular Pharmacology Branch, DTP, NCI, 2023)

Tested on: 349418-098-R-PDC complex spheroid growth
Experiment: Anticancer human tumor 349418-098-R-PDC patient-derived lung adenocarcinoma cell line growth inhibition [AhR]
Conditions: for IC50: curve of first compound; for viability, T/C: stronger effect = lower value; active = viability on the fitted dose curve at most 10% of control; inactive = the rest
Outline: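 Complex tumor spheroids co-cultured with HUVEC and human MSC stroma; AhR antagonists tested in combination with standard-of-care and investigational agents. Top concentration at or near clinical Cmax (else 10 microM), half-log dilutions; growth expressed as percent test/control.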
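Also: spheroids exposed to agents for seven days before luminescence viability read.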
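For viability, T/C in this document: spheroids also contain HUVEC endothelial cells and human MSC stroma.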

Cn1ncnc1C1c2n[nH]c(=O)c3cc(F)cc(c23)NC1c1ccc(F)cc1 (stereo not given) + CC(CO)NC(=O)c1cc(-c2ccc(Cl)cc2)nn(-c2cnn(C)c2)c1=O
4.21 nM: IC50 (second compound 10 µM)
> 100 nM: IC50 (second compound 0.1 µM) | IC50 (second compound 0.316 µM) | IC50 (second compound 1 µM)
14.3 nM: IC50 (second compound 3.16 µM)
inactive: viability, T/C (second compound 0.1 µM, first compound 0.000316 µM) 81.4% | viability, T/C (second compound 0.1 µM, first compound 0.001 µM) 85.1% | viability, T/C (second compound 0.1 µM, first compound 0.00316 µM) 94% | viability, T/C (second compound 0.1 µM, first compound 0.01 µM) 96.2% | viability, T/C (second compound 0.1 µM, first compound 0.0316 µM) 84.9% | viability, T/C (second compound 0.1 µM, first compound 0.1 µM) 87.3% | viability, T/C (second compound 0.316 µM, first compound 0.000316 µM) 71.8% | viability, T/C (second compound 0.316 µM, first compound 0.001 µM) 84.4% | viability, T/C (second compound 0.316 µM, first compound 0.00316 µM) 60.6% | viability, T/C (second compound 0.316 µM, first compound 0.01 µM) 76.3% | viability, T/C (second compound 0.316 µM, first compound 0.0316 µM) 48% | viability, T/C (second compound 0.316 µM, first compound 0.1 µM) 60.1% | viability, T/C (second compound 1 µM, first compound 0.000316 µM) 78.1% | viability, T/C (second compound 1 µM, first compound 0.001 µM) 106% | viability, T/C (second compound 1 µM, first compound 0.00316 µM) 83.9% | viability, T/C (second compound 1 µM, first compound 0.01 µM) 52.2% | viability, T/C (second compound 1 µM, first compound 0.0316 µM) 51.2% | viability, T/C (second compound 1 µM, first compound 0.1 µM) 56.8% | viability, T/C (second compound 3.16 µM, first compound 0.000316 µM) 83.1% | viability, T/C (second compound 3.16 µM, first compound 0.001 µM) 68.9% | viability, T/C (second compound 3.16 µM, first compound 0.00316 µM) 55.7% | viability, T/C (second compound 3.16 µM, first compound 0.01 µM) 61% | viability, T/C (second compound 3.16 µM, first compound 0.0316 µM) 37.6% | viability, T/C (second compound 3.16 µM, first compound 0.1 µM) 45.3% | viability, T/C (second compound 10 µM, first compound 0.000316 µM) 39.9% | viability, T/C (second compound 10 µM, first compound 0.001 µM) 64.7% | viability, T/C (second compound 10 µM, first compound 0.00316 µM) 59.8% | viability, T/C (second compound 10 µM, first compound 0.01 µM) 35.2% | viability, T/C (second compound 10 µM, first compound 0.0316 µM) 32.4% | viability, T/C (second compound 10 µM, first compound 0.1 µM) 39.2%
